The values that follow come from patent US20220009920A1 (GB005, Inc., priority 2020, published 2022).

A word on the inhibition: it is the drop in the measured response relative to a control, in per cent.

Holding throughout (assay): Large panel kinase profiling
Common to all, as to assay type: biochemical
What all share (details): 1 μM test article, 1 mM ATP

In one experiment the target is T1, TAOK1 (Homo sapiens, UniProt Q7L7X3).
T1 construct: AssayQuant Technologies, Inc. (contract assay)
T1 sequence (Q7L7X3 1-1001): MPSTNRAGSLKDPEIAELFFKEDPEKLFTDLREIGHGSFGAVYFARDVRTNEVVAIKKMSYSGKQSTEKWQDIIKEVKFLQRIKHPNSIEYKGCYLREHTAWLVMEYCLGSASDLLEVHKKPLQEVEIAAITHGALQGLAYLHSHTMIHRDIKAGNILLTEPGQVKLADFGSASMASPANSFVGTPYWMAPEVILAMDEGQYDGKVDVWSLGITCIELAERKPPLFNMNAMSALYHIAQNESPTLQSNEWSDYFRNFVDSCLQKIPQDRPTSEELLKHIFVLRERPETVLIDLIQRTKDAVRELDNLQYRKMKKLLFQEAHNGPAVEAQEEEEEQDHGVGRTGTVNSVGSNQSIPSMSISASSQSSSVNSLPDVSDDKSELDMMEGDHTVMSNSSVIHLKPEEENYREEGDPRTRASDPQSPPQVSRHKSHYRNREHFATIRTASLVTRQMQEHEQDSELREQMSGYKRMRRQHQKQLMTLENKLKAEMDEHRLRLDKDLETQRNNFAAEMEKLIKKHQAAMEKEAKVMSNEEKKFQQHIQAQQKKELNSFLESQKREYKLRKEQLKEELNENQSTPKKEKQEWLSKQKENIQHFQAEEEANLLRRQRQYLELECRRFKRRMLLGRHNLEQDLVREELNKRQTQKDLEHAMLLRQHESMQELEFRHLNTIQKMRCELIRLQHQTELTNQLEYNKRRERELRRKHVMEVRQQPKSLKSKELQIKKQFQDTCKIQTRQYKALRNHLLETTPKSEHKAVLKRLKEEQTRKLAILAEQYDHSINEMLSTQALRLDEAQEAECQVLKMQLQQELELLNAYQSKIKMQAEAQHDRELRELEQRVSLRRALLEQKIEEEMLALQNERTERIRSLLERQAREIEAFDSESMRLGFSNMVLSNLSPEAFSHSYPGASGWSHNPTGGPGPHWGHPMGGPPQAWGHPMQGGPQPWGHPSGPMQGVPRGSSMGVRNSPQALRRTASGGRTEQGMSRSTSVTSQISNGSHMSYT
An outline of the steps: (§1)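 Steps: combine kinase, CSox-Sensor substrate, 1 mM ATP and 1 μM compound; seal and incubate at 30° C.; read top fluorescence kinetically each minute, Ex 360 nm/Em 485 nm.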

The target of another experiment is T2, PDK1 (Homo sapiens, UniProt O15530).
T2 sequence (O15530 1-556): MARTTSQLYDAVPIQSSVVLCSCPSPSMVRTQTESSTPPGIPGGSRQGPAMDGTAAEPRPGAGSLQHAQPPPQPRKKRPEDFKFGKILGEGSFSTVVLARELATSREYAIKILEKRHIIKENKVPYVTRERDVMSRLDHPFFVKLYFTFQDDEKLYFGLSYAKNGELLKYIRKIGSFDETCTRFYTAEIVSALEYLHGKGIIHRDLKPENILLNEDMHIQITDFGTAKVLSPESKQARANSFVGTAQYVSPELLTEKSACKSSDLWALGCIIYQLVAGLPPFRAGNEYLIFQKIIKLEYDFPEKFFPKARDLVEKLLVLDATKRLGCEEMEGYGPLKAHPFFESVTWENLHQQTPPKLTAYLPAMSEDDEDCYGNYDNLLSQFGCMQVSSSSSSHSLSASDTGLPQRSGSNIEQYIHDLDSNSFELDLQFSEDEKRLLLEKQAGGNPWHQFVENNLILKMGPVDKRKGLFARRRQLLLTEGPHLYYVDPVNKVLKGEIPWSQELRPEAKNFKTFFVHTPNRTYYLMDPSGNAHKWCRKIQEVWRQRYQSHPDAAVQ
The method, boiled down: as §1

For another experiment, the target named is EPHA5 (Homo sapiens, UniProt P54756). The method, boiled down: as §1
Sequence of EPHA5 (P54756 25-1037, species assumed): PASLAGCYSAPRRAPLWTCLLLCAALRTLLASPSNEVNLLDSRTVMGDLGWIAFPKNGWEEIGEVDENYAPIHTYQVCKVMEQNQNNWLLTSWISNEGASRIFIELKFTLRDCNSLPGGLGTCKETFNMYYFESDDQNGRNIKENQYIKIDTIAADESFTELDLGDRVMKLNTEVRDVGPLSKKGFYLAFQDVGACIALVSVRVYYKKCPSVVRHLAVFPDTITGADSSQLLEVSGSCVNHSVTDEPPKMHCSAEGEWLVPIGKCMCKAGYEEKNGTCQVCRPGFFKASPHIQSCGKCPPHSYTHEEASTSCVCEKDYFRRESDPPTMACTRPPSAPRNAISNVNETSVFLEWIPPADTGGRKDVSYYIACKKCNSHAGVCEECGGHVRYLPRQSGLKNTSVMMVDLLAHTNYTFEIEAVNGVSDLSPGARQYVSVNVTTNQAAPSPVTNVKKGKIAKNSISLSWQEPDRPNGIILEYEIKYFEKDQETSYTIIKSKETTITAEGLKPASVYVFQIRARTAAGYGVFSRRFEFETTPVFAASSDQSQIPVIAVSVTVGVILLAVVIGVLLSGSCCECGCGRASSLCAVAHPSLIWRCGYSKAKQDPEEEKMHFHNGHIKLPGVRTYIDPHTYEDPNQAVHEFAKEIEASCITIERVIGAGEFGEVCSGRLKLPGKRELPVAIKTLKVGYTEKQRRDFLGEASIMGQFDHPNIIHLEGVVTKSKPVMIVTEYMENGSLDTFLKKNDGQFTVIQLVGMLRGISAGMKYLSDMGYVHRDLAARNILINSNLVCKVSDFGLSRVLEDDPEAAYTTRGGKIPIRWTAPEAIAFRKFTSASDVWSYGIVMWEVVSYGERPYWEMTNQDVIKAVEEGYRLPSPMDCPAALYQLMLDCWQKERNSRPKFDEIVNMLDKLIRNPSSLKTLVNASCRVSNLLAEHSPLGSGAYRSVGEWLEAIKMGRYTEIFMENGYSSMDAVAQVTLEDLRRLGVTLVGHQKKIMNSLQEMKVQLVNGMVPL
Another experiment concerns the target T3, MAP3K2 (Homo sapiens, UniProt Q9Y2U5).
T3 construct: AssayQuant Technologies, Inc. (service provider)
T3 sequence (Q9Y2U5 1-619): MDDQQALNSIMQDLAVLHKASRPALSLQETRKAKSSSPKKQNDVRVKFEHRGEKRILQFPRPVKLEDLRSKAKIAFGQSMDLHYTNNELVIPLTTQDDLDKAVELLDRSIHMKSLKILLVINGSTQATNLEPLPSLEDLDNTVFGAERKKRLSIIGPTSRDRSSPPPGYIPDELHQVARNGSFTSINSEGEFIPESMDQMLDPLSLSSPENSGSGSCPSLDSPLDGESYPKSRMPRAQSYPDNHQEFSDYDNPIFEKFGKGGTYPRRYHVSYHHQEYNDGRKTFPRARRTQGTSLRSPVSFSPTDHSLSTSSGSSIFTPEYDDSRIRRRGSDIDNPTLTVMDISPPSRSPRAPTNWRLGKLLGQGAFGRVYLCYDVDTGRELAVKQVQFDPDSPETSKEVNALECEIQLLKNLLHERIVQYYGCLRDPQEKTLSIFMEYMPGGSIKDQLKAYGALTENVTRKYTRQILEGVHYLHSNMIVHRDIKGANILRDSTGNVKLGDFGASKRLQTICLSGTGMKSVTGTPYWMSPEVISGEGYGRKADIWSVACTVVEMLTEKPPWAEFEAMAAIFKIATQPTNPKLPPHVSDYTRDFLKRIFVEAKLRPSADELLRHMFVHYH
The method, boiled down: as §1

The structures appear in SMILES notation.

Turning to `C=CC(=O)N1CCCC(c2c(F)cc(C(N)=O)c3[nH]c4c(c23)CCCCC4)C1` (single isomer, unassigned) [Compound 5-6], the inhibition at 1 µM is 11.9% against TAOK1, 22.8% at PDK1, 8.1% at EPHA5 and -19% on MAP3K2.
For the molecule `C=CC(=O)N1CCC[C@@H](c2c(F)cc(C(N)=O)c3[nH]c4c(c23)CC2(CC4)CC2)C1` [Compound 6-2, (S)-5-(1-acryloylpiperidin-3-yl)-6-fluoro-1,2,4,9-tetrahydrospiro[carbazole-3,1′-cyclopropane]-8-carboxamide], the inhibition at 1 µM at TAOK1 is 9.5%; on PDK1, -7.8%; against EPHA5, 17%; against MAP3K2, -6.6%.
On to `C=CC(=O)N1CCC[C@@H](c2c(F)cc(C(N)=O)c3[nH]c4c(c23)CCC4)C1` [Compound 10-2, (S)-8-(1-acryloylpiperidin-3-yl)-7-fluoro-1,2,3,4-tetrahydrocyclo-penta[b]indole-5-carboxamide], for which the inhibition at 1 µM against TAOK1 is 11.1%; at PDK1, -28.3%; on EPHA5, -13.5%; against MAP3K2 it was 15.7%.
